Source: patent US12673946B2, “Pyrimidin-4(3H)-one derivatives as TRPV4 antagonists” (RaQualia Pharma Inc., priority 2020, dated 2026)

Target: T1, human TRPV4 (Homo sapiens, UniProt Q9HBA0)
T1 construct: host or cells: tetracycline-inducible Flp-In T-REx 293 cells
Test: Hypotonicity-induced Ca2+ influx (Fluo-4, FDSS)
Assay type: cell-based
Method in brief: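 Flp-In T-REx 293 cells with tetracycline-induced human TRPV4, loaded with Fluo-4 for 60 min at 25 °C. Compound added 5 min before hypotonic mannitol/CaCl2 solution. Ca2+ signal recorded for 4.5 min on FDSS.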

[1] = Flp-In T-REx 293 cells expressing human TRPV4, examples listed under heading 'Human IC50<50 nM'
[2] = Flp-In T-REx 293 cells stably expressing human TRPV4, compounds listed by potency bin (<10 nM Tables 96-1/96-2, <3 nM Table 97)

T1 sequence (Q9HBA0 whole entry): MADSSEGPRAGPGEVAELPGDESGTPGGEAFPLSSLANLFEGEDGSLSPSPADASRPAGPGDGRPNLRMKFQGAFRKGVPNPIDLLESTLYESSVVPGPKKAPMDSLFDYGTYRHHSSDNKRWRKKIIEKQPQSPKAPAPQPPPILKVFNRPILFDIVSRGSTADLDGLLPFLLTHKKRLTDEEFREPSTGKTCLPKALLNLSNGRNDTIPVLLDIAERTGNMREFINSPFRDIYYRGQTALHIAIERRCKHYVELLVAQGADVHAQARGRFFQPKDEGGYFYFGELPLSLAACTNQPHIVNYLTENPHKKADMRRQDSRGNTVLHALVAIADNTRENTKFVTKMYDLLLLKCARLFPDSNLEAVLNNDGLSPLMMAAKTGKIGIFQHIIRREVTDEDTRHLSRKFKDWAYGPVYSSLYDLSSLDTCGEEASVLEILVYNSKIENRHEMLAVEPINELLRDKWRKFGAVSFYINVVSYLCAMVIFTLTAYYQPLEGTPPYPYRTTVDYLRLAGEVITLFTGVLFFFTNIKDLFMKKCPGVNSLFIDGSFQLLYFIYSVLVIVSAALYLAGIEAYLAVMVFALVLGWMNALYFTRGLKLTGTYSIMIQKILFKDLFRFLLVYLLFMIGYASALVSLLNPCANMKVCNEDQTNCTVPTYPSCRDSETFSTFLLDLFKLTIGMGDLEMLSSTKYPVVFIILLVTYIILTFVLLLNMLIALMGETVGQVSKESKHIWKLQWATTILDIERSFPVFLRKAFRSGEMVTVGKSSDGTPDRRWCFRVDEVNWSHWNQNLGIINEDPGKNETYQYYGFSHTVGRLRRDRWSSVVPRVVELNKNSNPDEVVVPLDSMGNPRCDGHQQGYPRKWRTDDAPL

Row | SMILES | IC50 [1] | IC50 [2]
1 | O=C(C(O)c1cccc(-c2cccc(C(F)(F)F)c2)c1)N1CCc2nc(C3(c4cccc(Cl)c4)CC3)[nH]c(=O)c2C1 (stereo not drawn) [14-8] | < 50 nM | < 10 nM
2 | O=C(C(O)c1cccc(F)c1F)N1CCc2nc(C3(c4cccc(F)c4)CC3)[nH]c(=O)c2C1 (stereo not drawn) [3-28] | < 50 nM | –
3 | CC(=O)c1cccc(C2(c3nc4c(c(=O)[nH]3)CN(C(=O)[C@H](O)c3cccc(C(F)(F)F)c3)CCC4)CC2)c1 [60-1, (R)-2-(1-(3-acetylphenyl)cyclopropyl)-6-(2-hydroxy-2-(3-(trifluoromethyl)phenyl)acetyl)-3,5,6,7,8,9-hexahydro-4H-pyrimido[5,4-c]azepin-4-one] | < 50 nM | –
4 | O=C([C@H](O)c1cccc(C(F)(F)F)c1)N1CCCc2nc(C3(c4cccc(OCc5ccccc5)c4)CC3)[nH]c(=O)c2C1 [17-90] | < 50 nM | < 10 nM
5 | CC(C)(O)CCc1csc(C2(c3nc4c(c(=O)[nH]3)CN(C(=O)[C@H](O)c3cccc(C(F)(F)F)c3)CCC4)CC2)c1 [30-12] | < 50 nM | –
6 | O=C([C@H](O)c1cccc(F)c1F)N1CCCc2nc(C3(c4cccc(F)c4)CC3)[nH]c(=O)c2C1 [17-60] | < 50 nM | –
7 | O=C([C@H](O)c1cccc(-c2cccc(C(F)(F)F)c2)c1)N1CCCc2c(nc(C3(c4ccccc4)CC3)[nH]c2=O)C1 [49-54] | < 50 nM | < 10 nM
8 | O=C([C@H](O)c1cccc(Cl)c1)N1CCc2nc(C3(c4cc(Br)cs4)CC3)[nH]c(=O)c2C1 [6-18] | < 50 nM | –
9 | O=C(Cc1cccc(-c2cccc(Cl)c2)c1)N1CCCc2nc(C3(c4ccccc4)CC3)[nH]c(=O)c2C1 [17-136] | < 50 nM | < 10 nM
10 | O=C([C@H](O)c1cccc(C(F)(F)F)c1)N1CCCc2nc(C3(c4cccc(-c5cnc(-c6ccccc6)s5)c4)CC3)[nH]c(=O)c2C1 [17-98] | < 50 nM | < 3 nM
11 | O=C(C(O)c1cccc(OCC(F)(F)F)c1)N1CCCc2nc(C3(c4cccc(Cl)c4)CC3)[nH]c(=O)c2C1 (stereo not drawn) [17-50] | < 50 nM | –
12 | O=C(N1CCCc2nc(C3(c4ccccc4)CC3)[nH]c(=O)c2C1)C(F)(F)c1cccc(Cl)c1 [20-7] | < 50 nM | < 10 nM
13 | O=C(C(O)c1cccc(-c2csc3ccccc23)c1)N1CCc2nc(C3(c4ccccc4)CC3)[nH]c(=O)c2C1 (stereo not drawn) [44-40] | < 50 nM | –
14 | CC(C)(C)c1cccc(-c2cccc([C@@H](O)C(=O)N3CCCc4nc(C5(c6cncc(C7CCCCC7)c6)CC5)[nH]c(=O)c4C3)c2)c1 [55-12] | < 50 nM | < 10 nM
15 | O=C(N1CCc2nc(C3(c4ccccc4)CC3)[nH]c(=O)c2C1)C(F)(F)c1cccc(C(F)(F)F)c1 [20-9] | < 50 nM | –
16 | CC(C)(C)c1cccc(-c2cccc([C@@H](O)C(=O)N3CCCc4nc(C5(c6cncc(-c7ccccc7)c6)CC5)[nH]c(=O)c4C3)c2)c1 [56-4] | < 50 nM | < 10 nM
17 | O=C([C@H](O)c1cccc(-c2cccc(OC(F)(F)F)c2)c1)N1CCCc2nc(C3(c4ccccc4)CC3)[nH]c(=O)c2C1 [49-14] | < 50 nM | < 3 nM
18 | O=C([C@H](O)c1cccc(-c2cncc(C(F)(F)F)c2)c1)N1CCc2nc(C3(c4ccccc4)CC3)[nH]c(=O)c2C1 [44-92] | < 50 nM | –
19 | O=C(Cc1ccccc1-c1ccccc1)N1CCCc2nc(C3(c4cccc(Cl)c4)CC3)[nH]c(=O)c2C1 [17-80] | < 50 nM | –
20 | N#Cc1cc(Cl)cc(-c2cccc([C@@H](O)C(=O)N3CCc4nc(C5(c6ccccc6)CC5)[nH]c(=O)c4C3)c2)c1 [44-110] | < 50 nM | < 3 nM
21 | O=C([C@H](O)c1cccc(C(F)(F)F)c1)N1CCCc2nc(C3(c4cccc(-c5csc6ccccc56)c4)CC3)[nH]c(=O)c2C1 [42-28] | < 50 nM | < 10 nM

Row | SMILES | IC50 [1] | IC50 [2]
22 | O=C([C@H](O)c1cccc(-c2cc(C(F)(F)F)cc(C(F)(F)F)c2)c1)N1CCCc2nc(C3(c4ccccc4)CC3)[nH]c(=O)c2C1 [49-32] | < 50 nM | < 10 nM
23 | O=C([C@H](O)c1cccc(Cl)c1)N1CCCc2nc(C3(c4cc(C5CCCC5)cs4)CC3)[nH]c(=O)c2C1 [18-23] | < 50 nM | < 3 nM
24 | O=C(C(O)c1cccc(Cl)c1F)N1CCc2nc(C3(c4cccc(Cl)c4)CC3)[nH]c(=O)c2C1 (stereo not drawn) [14-28] | < 50 nM | –
25 | N#Cc1cccc(-c2cccc(C(O)C(=O)N3CCc4nc(C5(c6ccccc6)CC5)[nH]c(=O)c4C3)c2)c1 (stereo not drawn) [44-32] | < 50 nM | –
26 | O=C([C@H](O)c1cccc(-c2ccnc(C(F)(F)F)c2)c1)N1CCc2nc(C3(c4ccccc4)CC3)[nH]c(=O)c2C1 [44-79] | < 50 nM | < 3 nM
27 | CC(C)(C)c1cccc(C(O)C(=O)N2CCCc3nc(C4(c5cncc(-c6ccccc6)c5)CC4)[nH]c(=O)c3C2)c1 (stereo not drawn) [19-5] | < 50 nM | < 10 nM
28 | O=C([C@H](O)c1cccc(Cl)c1)N1CCc2nc(C3(c4cccc(Cl)c4)CC3)[nH]c(=O)c2C1 [3-50] | < 50 nM | –
29 | O=C([C@H](O)c1cccc(C(F)(F)F)c1)N1CCc2nc(C3(c4cccc(F)c4)CC3)[nH]c(=O)c2C1 [3-73] | < 50 nM | –
30 | O=C(C(O)c1cccc(-c2cccc(OC(F)(F)F)c2)c1)N1CCCc2nc(C3(c4ccccc4)CC3)[nH]c(=O)c2C1 (stereo not drawn) [49-7] | < 50 nM | < 10 nM
31 | O=C([C@H](O)c1cccc(C(F)(F)F)c1)N1CCc2nc(C3(c4cc(C5CCCC5)cs4)CC3)[nH]c(=O)c2C1 [15-1] | < 50 nM | < 3 nM
32 | O=C(C(O)c1cccc(-c2cccc(C(F)(F)F)c2)c1)N1CCc2nc(C3(c4ccccc4)CC3)[nH]c(=O)c2C1 (stereo not drawn) [44-6] | < 50 nM | < 10 nM
33 | CC(C)c1cncc(C2(c3nc4c(c(=O)[nH]3)CN(C(=O)[C@H](O)c3cccc(-c5cccc(C(C)(C)C)c5)c3)CCC4)CC2)c1 [55-6] | < 50 nM | < 10 nM
34 | CN(C)Cc1ccc(-c2cccc(C3(c4nc5c(c(=O)[nH]4)CN(C(=O)[C@H](O)c4cccc(C(F)(F)F)c4)CCC5)CC3)c2)cc1 [42-53] | < 50 nM | –
35 | CC(C)c1cccc(C2(c3nc4c(c(=O)[nH]3)CN(C(=O)[C@H](O)c3cccc(-c5ccnc(C(F)(F)F)c5)c3)CCC4)CC2)c1 [51-6] | < 50 nM | < 3 nM
36 | O=C(C(O)c1cccc(-c2ccc(F)cc2F)c1)N1CCc2nc(C3(c4ccccc4)CC3)[nH]c(=O)c2C1 (stereo not drawn) [44-52] | < 50 nM | –
37 | O=C(C(O)c1cccc(Cl)c1F)N1CCc2nc(C3(c4ccccc4)CC3)[nH]c(=O)c2C1 (single isomer, unassigned) [3-69] | < 50 nM | –
38 | COCCOc1cccc(-c2cccc(C3(c4nc5c(c(=O)[nH]4)CN(C(=O)[C@H](O)c4cccc(Cl)c4)CCC5)CC3)c2)c1 [40-22] | < 50 nM | < 3 nM
39 | O=C([C@H](O)c1cccc(F)c1F)N1CCc2nc(C3(c4ccccc4)CC3)[nH]c(=O)c2C1 [2-34, (R)-(−)-6-(2-(2,3-difluorophenyl)-2-hydroxyacetyl)-2-(1-phenylcyclopropyl)-5,6,7,8-tetrahydropyrido[4,3-d]pyrimidin-4(3H)-one] | < 50 nM | –
40 | O=C(N1CCCc2nc(C3(c4ccccc4)CC3)[nH]c(=O)c2C1)C(F)(F)c1cccc(-c2cccc(C(F)(F)F)c2)c1 [58-1] | < 50 nM | < 10 nM
41 | O=C(Cc1cccc(-c2cccc(C(F)(F)F)c2)c1)N1CCCc2nc(C3(c4cncc(-c5ccccc5)c4)CC3)[nH]c(=O)c2C1 [19-14] | < 50 nM | < 10 nM
42 | O=C([C@H](O)c1cccc(-c2cc3ccccc3s2)c1)N1CCc2nc(C3(c4ccccc4)CC3)[nH]c(=O)c2C1 [44-95] | < 50 nM | < 3 nM
